Assay results as given in publication PMC11642016 (International Journal of Molecular Sciences, 2024).
Several values for one entry are separate records, joined by “and”; a condition that tells them apart may be missing. Identical values can stand only once. Like-named read-outs stand apart in the source and are kept apart here.

Key:
[1] = tested on: PANC-1 and Fadu cells; experiment: CellTiter-Glo viability, statements covering both cancer cell lines; assay type: cell-based, human; settings: Homo sapiens; 25 µM; in either of the cancer cell lines; read-out: drop in viability at 25 µM
Description: The effects of the synthesized compounds on cell viability were measured using the CellTiter-Glo® luminescent cell viability assay (Promega, Madison, WI, USA), according to the manufacturer’s instructions. […] After seeding, cells were incubated for a further 48 h before treatment. Cells were treated with the compounds for 72 h. […] After treatment, the luminescence signal was recorded using a microplate reader (BioTek Synergy 2 Multi-Mode Reader, BioTek, Winooski, VT, USA).

[2] = tested on: non-tumorous primary fibroblast cells; experiment: CellTiter-Glo luminescent cell viability assay, primary fibroblasts; settings: for Primer fibroblast Cell viability (% of controll): dose–response, individual replicates
[3] = as above; settings: human, primary skin fibroblasts (non-tumorous), Primer fibroblast Cell viability (% of controll), 72 h, dose–response, individual replicates
[4] = tested on: PANC-1, Fadu, A2058 and EBC-1 cell lines; parameters: method as in PMID 35455465; settings: 10 µM; cited from earlier work
[5] = tested on: Fadu cells; experiment: CellTiter-Glo luminescent cell viability assay, Fadu; settings: for viability at 2.8 µM: read-out: Cell Viability (% of Control) 2.8 µM, Fadu; for viability at 2.8 µM / viability at 8.3 µM / viability at 25 µM: mean ± SD, n = 2; for viability at 8.3 µM: read-out: Cell Viability (% of Control) 8.3 µM, Fadu; for viability at 25 µM: read-out: Cell Viability (% of Control) 25 µM, Fadu
[6] = tested on: PANC-1 and A2058 cells; parameters: method as in PMID 35455465; settings: 24 h exposure time; cited from earlier work
[7] = tested on: PANC-1 cells; experiment: CellTiter-Glo luminescent cell viability assay, PANC-1; settings: for viability at 2.8 µM: read-out: Cell Viability (% of Control) 2.8 µM, PANC-1; for viability at 2.8 µM / viability at 8.3 µM / viability at 25 µM: mean ± SD, n = 2; for viability at 8.3 µM: read-out: Cell Viability (% of Control) 8.3 µM, PANC-1; for viability at 25 µM: read-out: Cell Viability (% of Control) 25 µM, PANC-1
[8] = 1 μM, 72 h, dose–response, individual replicates
[9] = 1.5 μM, 72 h, dose–response, individual replicates
[10] = 2.3 μM, 72 h, dose–response, individual replicates
[11] = 3.4 μM, 72 h, dose–response, individual replicates
[12] = 5.1 μM, 72 h, dose–response, individual replicates
[13] = 7.7 μM, 72 h, dose–response, individual replicates
[14] = 17.3 μM, 72 h, dose–response, individual replicates
[15] = 26 μM, 72 h, dose–response, individual replicates
[16] = Homo sapiens, FaDu, 72 h, 72 h, first-set screening
[17] = Homo sapiens, FaDu, 72 h, 72 h, second-set screening
[18] = Homo sapiens, PANC-1, 72 h, 72 h, first-set screening
[19] = Homo sapiens, PANC-1, 72 h, 72 h, second-set screening

NCC#Cc1ccc(CN2C(=O)C3=C(CCN(Cc4ccc(-n5cc(-c6ccccc6)nn5)cc4)C3)N3CCN=C23)cc1 [I/B, reference compound]
viability at 25 µM [1]: 0 to 1%
Primer fibroblast Cell viability (% of controll) ([2]; 0.7 μM, 72 h): 98 % of controll and 97 % of controll
Primer fibroblast Cell viability (% of controll) ([2]; 1.5 μM, 72 h): 108 % of controll and 98 % of controll
Primer fibroblast Cell viability (% of controll) ([2]; 2.3 μM, 72 h): 107 % of controll and 98 % of controll
Primer fibroblast Cell viability (% of controll) ([2]; 3.4 μM, 72 h): 109 % of controll and 98 % of controll
Primer fibroblast Cell viability (% of controll) ([2]; 5.1 μM, 72 h): 110 % of controll and 98 % of controll
Primer fibroblast Cell viability (% of controll) ([2]; 7.7 μM, 72 h): 107 % of controll
Primer fibroblast Cell viability (% of controll) ([2]; 17.3 μM, 72 h): 0 % of controll
Primer fibroblast Cell viability (% of controll) ([2]; 26 μM, 72 h): 0 % of controll
IC50 ([2]; Homo sapiens, Fibroblast, 72 h, read-out: IC50 Value ± SEM Primary Fibroblast, 72 h treatment, best-fit values, n = 3): 11 ± 0.65 µM
IC50 ([2]; Homo sapiens, Fibroblast, read-out: Primary fibroblast IC50 values, Mean, mean of independently fitted replicate IC50 values (Supplement S.6), ONC201 value mathematically estimated from inflection point): 11.2 µM
IC50 ([2]; Homo sapiens, Fibroblast, read-out: Primary fibroblast IC50 values, individual replicates n1-n3, IC50 independently determined for each replicate (Supplement S.6), ONC201 value mathematically estimated from inflection point, viability stayed above 50%): 11.1 µM
IC50 ([2]; read-out: Primary fibroblast IC50 values, individual replicates n1-n3, IC50 independently determined for each replicate (Supplement S.6), ONC201 value mathematically estimated from inflection point, viability stayed above 50%): 11.1 µM and 11.4 µM
viability at 72 h, 0.7 µM ([3]; 0.7 μM): 93%
viability at 72 h, 1 µM ([3]; 1 μM): 99%
viability at 72 h, 1.5 µM ([3]; 1.5 μM): 105%
viability at 72 h, 2.3 µM ([3]; 2.3 μM): 100%
viability at 72 h, 3.4 µM ([3]; 3.4 μM): 101%
viability at 72 h, 5.1 µM ([3]; 5.1 μM): 104%
viability at 72 h, 7.7 µM ([3]; 7.7 μM): 92%
viability at 72 h, 17.3 µM ([3]; 17.3 μM): 0%
viability at 72 h, 26 µM ([3]; 26 μM): 0%
viable cells after treatment in colony formation assays [4]: no viable cells could be observed
Fadu Cell viability (% of controll) [5, 8]: 116 % of controll
Fadu Cell viability (% of controll) [5, 9]: 108 % of controll and 114 % of controll
Fadu Cell viability (% of controll) [5, 10]: 112 % of controll
Fadu Cell viability (% of controll) [5, 11]: 112 % of controll
Fadu Cell viability (% of controll) [5, 12]: 107 % of controll
Fadu Cell viability (% of controll) [5, 13]: 100 % of controll and 97 % of controll
Fadu Cell viability (% of controll) [5, 14]: 0 % of controll
Fadu Cell viability (% of controll) [5, 15]: 0 % of controll
viability at 2.8 µM [5, 16]: 112 ± 7%
viability at 2.8 µM [5, 17]: 112 ± 7%
viability at 8.3 µM [5, 16]: 103 ± 6%
viability at 8.3 µM [5, 17]: 103 ± 6%
viability at 25 µM [5, 16]: 0%
viability at 25 µM [5, 17]: 0%
viability at 0.7 µM ([5]; Homo sapiens, FaDu, 72 h, read-out: Fadu Cell viability (% of controll), 0.7 μM, 72 h, dose–response, individual replicates): 106%
viability at 1 µM ([5]; Homo sapiens, FaDu, 72 h, read-out: Fadu Cell viability (% of controll), 1 μM, 72 h, dose–response, individual replicates): 112%
viability at 1.5 µM ([5]; Homo sapiens, FaDu, 72 h, read-out: Fadu Cell viability (% of controll), 1.5 μM, 72 h, dose–response, individual replicates): 109%
viability at 2.3 µM ([5]; Homo sapiens, FaDu, 72 h, read-out: Fadu Cell viability (% of controll), 2.3 μM, 72 h, dose–response, individual replicates): 110%
viability at 3.4 µM ([5]; Homo sapiens, FaDu, 72 h, read-out: Fadu Cell viability (% of controll), 3.4 μM, 72 h, dose–response, individual replicates): 105%
viability at 5.1 µM ([5]; Homo sapiens, FaDu, 72 h, read-out: Fadu Cell viability (% of controll), 5.1 μM, 72 h, dose–response, individual replicates): 104%
viability at 7.7 µM ([5]; Homo sapiens, FaDu, 72 h, read-out: Fadu Cell viability (% of controll), 7.7 μM, 72 h, dose–response, individual replicates): 93%
viability at 17.3 µM ([5]; Homo sapiens, FaDu, 72 h, read-out: Fadu Cell viability (% of controll), 17.3 μM, 72 h, dose–response, individual replicates): 0%
viability at 26 µM ([5]; Homo sapiens, FaDu, 72 h, read-out: Fadu Cell viability (% of controll), 26 μM, 72 h, dose–response, individual replicates): 0%
IC50 ([5]; Homo sapiens, FaDu, 72 h, read-out: IC50 Value ± SEM Fadu, 72 h treatment, best-fit values, n = 3): 10.3 ± 0.17 µM
IC50 ([5]; Homo sapiens, FaDu, read-out: Fadu IC50 values, Mean, mean of independently fitted replicate IC50 values (Supplement S.6)): 10.4 µM
IC50 ([5]; Homo sapiens, FaDu, read-out: Fadu IC50 values, individual replicates n1-n3, IC50 independently determined for each replicate measurement (Supplement S.6)): 11 µM
Selectivity Index (SI) Fibroblast/Fadu ([5]; ratio of mean best-fit IC50 for primary fibroblasts and best-fit IC50 for Fadu): 1.1
IC50 ([5]; read-out: Fadu IC50 values, individual replicates n1-n3, IC50 independently determined for each replicate measurement (Supplement S.6)): 9.91 µM and 10.2 µM
apoptosis induction [6]: far more efficient in apoptosis induction than ONC201
PANC-1 Cell viability (% of controll) ([7]; 0.7 μM, 72 h, dose–response, individual replicates): 106 % of controll and 104 % of controll
PANC-1 Cell viability (% of controll) [7, 8]: 106 % of controll and 107 % of controll
PANC-1 Cell viability (% of controll) [7, 9]: 111 % of controll
PANC-1 Cell viability (% of controll) [7, 10]: 113 % of controll
PANC-1 Cell viability (% of controll) [7, 11]: 113 % of controll
PANC-1 Cell viability (% of controll) [7, 12]: 109 % of controll and 116 % of controll
PANC-1 Cell viability (% of controll) [7, 13]: 72 % of controll and 90 % of controll
PANC-1 Cell viability (% of controll) [7, 14]: 0 % of controll
PANC-1 Cell viability (% of controll) [7, 15]: 0 % of controll
viability at 2.8 µM [7, 18]: 113 ± 4%
viability at 2.8 µM [7, 19]: 113 ± 4%
viability at 8.3 µM [7, 18]: 61 ± 22%
viability at 8.3 µM [7, 19]: 61 ± 22%
viability at 25 µM [7, 18]: 0%
viability at 25 µM [7, 19]: 0%
IC50 ([7]; Homo sapiens, PANC-1, 72 h, read-out: IC50 Value ± SEM PANC-1, 72 h treatment, best-fit values, n = 3): 8.2 ± 0.41 µM
viability at 0.7 µM ([7]; Homo sapiens, PANC-1, 72 h, read-out: PANC-1 Cell viability (% of controll), 0.7 μM, 72 h, dose–response, individual replicates): 102%
viability at 1 µM ([7]; Homo sapiens, PANC-1, 72 h, read-out: PANC-1 Cell viability (% of controll), 1 μM, 72 h, dose–response, individual replicates): 111%
viability at 1.5 µM ([7]; Homo sapiens, PANC-1, 72 h, read-out: PANC-1 Cell viability (% of controll), 1.5 μM, 72 h, dose–response, individual replicates): 111%
viability at 2.3 µM ([7]; Homo sapiens, PANC-1, 72 h, read-out: PANC-1 Cell viability (% of controll), 2.3 μM, 72 h, dose–response, individual replicates): 112%
viability at 3.4 µM ([7]; Homo sapiens, PANC-1, 72 h, read-out: PANC-1 Cell viability (% of controll), 3.4 μM, 72 h, dose–response, individual replicates): 108%
viability at 5.1 µM ([7]; Homo sapiens, PANC-1, 72 h, read-out: PANC-1 Cell viability (% of controll), 5.1 μM, 72 h, dose–response, individual replicates): 112%
viability at 7.7 µM ([7]; Homo sapiens, PANC-1, 72 h, read-out: PANC-1 Cell viability (% of controll), 7.7 μM, 72 h, dose–response, individual replicates): 72%
viability at 17.3 µM ([7]; Homo sapiens, PANC-1, 72 h, read-out: PANC-1 Cell viability (% of controll), 17.3 μM, 72 h, dose–response, individual replicates): 0%
viability at 26 µM ([7]; Homo sapiens, PANC-1, 72 h, read-out: PANC-1 Cell viability (% of controll), 26 μM, 72 h, dose–response, individual replicates): 0%
IC50 ([7]; Homo sapiens, PANC-1, read-out: PANC-1 IC50 values, Mean, mean of independently fitted replicate IC50 values (Supplement S.6)): 8.19 µM
IC50 ([7]; Homo sapiens, PANC-1, read-out: PANC-1 IC50 values, individual replicates n1-n3, IC50 independently determined for each replicate measurement (Supplement S.6)): 8.43 µM
Selectivity Index (SI) Fibroblast/PANC-1 ([7]; ratio of mean best-fit IC50 for primary fibroblasts and best-fit IC50 for PANC-1): 1.3
IC50 ([7]; read-out: PANC-1 IC50 values, individual replicates n1-n3, IC50 independently determined for each replicate measurement (Supplement S.6)): 7.99 µM and 8.15 µM
